Assay results reported in the NIST ThermoML archive (doi:10.1021/je4009238).

Legend:
[1] = xn = mol fraction of the nth substance listed; settings: 318.15 K, 101 kPa, Liquid
[2] = refractive index (Na D-line) (dimensionless); xn = mol fraction of the nth substance listed; settings: 101 kPa, Liquid

CCn1cc[n+](C)c1.[Cl-] [1-ethyl-3-methylimidazolium chloride] + CN(C)C=O
[1]
Settings	mass density [kg/m3]	viscosity [mPa·s]
x1 = 0.0102	930.6	0.7059
x1 = 0.0203	935.4	0.794
x1 = 0.031	940.37	0.8045
x1 = 0.0417	944.85	0.8901
x1 = 0.0524	949.12	0.923
x1 = 0.0635	953.87	1.002
x1 = 0.0752	958.24	1.136
x1 = 0.0867	962.96	1.181
x1 = 0.0988	967.2	1.327
x1 = 0.1107	971.44	1.404
x1 = 0.1232	975.73	1.468
x1 = 0.1361	980.13	1.64
x1 = 0.1489	984.44	1.748
x1 = 0.1626	988.83	1.905
x1 = 0.1759	993.01	2.02

refractive index, [2]
Settings	288.15 K	298.15 K	308.15 K	318.15 K
x1 = 0.0102	1.43565	1.43106	1.42654	1.42218
x1 = 0.0203	1.43836	1.43346	1.42888	1.4245
x1 = 0.031	1.44091	1.4364	1.43189	1.4275
x1 = 0.0417	1.44354	1.43872	1.43416	1.42977
x1 = 0.0524	1.44588	1.44144	1.43691	1.43252
x1 = 0.0635	1.44822	1.44361	1.43896	1.43477
x1 = 0.0752	1.45067	1.44626	1.4419	1.43765
x1 = 0.0867	1.45308	1.44855	1.44372	1.43964
x1 = 0.0988	1.45542	1.4511	1.44678	1.44253
x1 = 0.1107	1.45784	1.45354	1.44907	1.445
x1 = 0.1232	1.46021	1.45597	1.45167	1.44746
x1 = 0.1361	1.46253	1.45827	1.45406	1.44986
x1 = 0.1489	1.46477	1.46065	1.45621	1.45192
x1 = 0.1626	1.46721	1.46302	1.45888	1.45477
x1 = 0.1759	1.46942	1.46536	1.46102	1.45679
